Series [1] can be described thus: H+/Na+ transport assay of bead-derived peptides (one-point).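 Further: relative to parent gramicidin A activity set to 1.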 Set-up: key: relative activity; mean of two control wells = 1.00. The following applies: bead-derived peptide solution, EYPC/EYPG LUVs. Type of series: biochemical. Summed up: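 H+/Na+ transport is monitored through pyranine fluorescence in freshly extruded LUVs after a 30-min room-temperature vortex with each library peptide at a single concentration. Signals are normalized to detergent (Triton X-100) and untreated controls.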

The test system of series [2] is P388 mouse leukemia cells. The following applies: 92 h. Summed up: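 First, library peptide stocks are diluted 250-fold in RPMI1640 with 10% heat-inactivated FBS. Next, they are mixed with P388 cells to give 1 × 10^4 cells/mL and incubated 92 h at 37 °C, 5% CO2. Finally, viability (%) is scored by WST-1 absorbance at 415 nm.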
Series [3] relates to Streptococcus pyogenes SSI-9. As to the kind of experiment: Antibacterial activity assay of bead-derived peptides (three concentrations). Particulars: S. pyogenes, bead-derived peptide solution, three concentrations. Set-up: key: +++: inhibition by the 640-fold diluted peptide solution; ++: inhibition by the 160-fold diluted solution; +: inhibition by the 40-fold diluted solution; -: no inhibition. Type of series: cell-based. Summed up:
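Bead-derived library peptide stocks in DMSO were tested undiluted and after 4- and 16-fold DMSO dilution against S. pyogenes SSI-9 (2 × 10^5 CFU/well) in cation-adjusted Mueller Hinton Broth with 5% laked horse blood. After 18 h at 37 °C, wells were scored for precipitation of grown cells.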

SMILES strings stand for the structures. Where a SMILES comes first, the peptide text is derived from it. [ ]: non-standard residue; d: D form. The star is where a group is joined. NHCH2CH2OH = OCCN*; For = O=C*

As to `CC(C)C[C@@H](NC(=O)[C@H](C)NC(=O)CNC(=O)[C@@H](NC=O)C(C)C)C(=O)N[C@@H](C)C(=O)N[C@H](CC(C)C)C(=O)N[C@H](C(=O)N[C@H](CC(C)C)C(=O)N[C@@H](Cc1c[nH]c2ccccc12)C(=O)N[C@@H](C(=O)N[C@@H](Cc1c[nH]c2ccccc12)C(=O)N[C@H](CC(C)C)C(=O)N[C@@H](Cc1c[nH]c2ccccc12)C(=O)N[C@H](CC(C)C)C(=O)N[C@@H](Cc1c[nH]c2ccccc12)C(=O)NCCO)[C@H](C)O)C(C)C` [compound 7211] (For-VGA[dL]A[dL]V[dL]W[dT]W[dL]W[dL]W-NHCH2CH2OH), the “H+/Na+ transport activity normalized against the value of 1 (1.00)” value (“H+/Na+ transport activity normalized” for short) in series [1] was 1.03. This compound showed a cell viability/% in series [2] of 100.0%. In addition, the antibacterial activity result in series [3] is “-”.

Regarding `CNC(=O)C[C@@H](NC(=O)[C@H](Cc1c[nH]c2ccccc12)NC(=O)[C@H](NC(=O)[C@H](Cc1c[nH]c2ccccc12)NC(=O)[C@@H](CC(C)C)NC(=O)[C@H](Cc1c[nH]c2ccccc12)NC(=O)[C@H](NC(=O)[C@@H](NC(=O)[C@@H](CC(C)C)NC(=O)[C@H](C)NC(=O)[C@H](NC(=O)[C@H](C)NC(=O)CNC(=O)[C@@H](NC=O)C(C)C)C(C)C)C(C)C)C(C)C)C(C)C)C(=O)N[C@@H](Cc1c[nH]c2ccccc12)C(=O)NCCO` [compound 7228] (For-VGA[dV]A[dL]V[dV]W[dL]W[dV]W[dD](NHMe)W-NHCH2CH2OH), the “H+/Na+ transport activity normalized” value in series [1] was determined as 1.06. In series [2], this compound yielded a cell viability/% of 100.0%. Moreover, in series [3], the antibacterial activity entry is “-”.

Take `CNC(=O)C[C@@H](NC(=O)[C@H](Cc1c[nH]c2ccccc12)NC(=O)[C@H](NC(=O)[C@H](Cc1c[nH]c2ccccc12)NC(=O)[C@H](NC(=O)[C@H](Cc1c[nH]c2ccccc12)NC(=O)[C@@H](CC(C)C)NC(=O)[C@@H](NC(=O)[C@H](NC(=O)[C@H](C)NC(=O)[C@H](NC(=O)[C@H](C)NC(=O)CNC(=O)[C@@H](NC=O)C(C)C)C(C)C)C(C)C)C(C)C)C(C)C)C(C)C)C(=O)N[C@@H](Cc1c[nH]c2ccccc12)C(=O)NCCO` [compound 7271] (For-VGA[dV]A[dV]V[dL]W[dV]W[dV]W[dD](NHMe)W-NHCH2CH2OH): the “H+/Na+ transport activity normalized” value in series [1] is 1.02. Moreover, in series [2], the cell viability/% is on record as 10.6%. Moreover, the antibacterial activity result in series [3] is listed as “-”.

For the compound `CC(C)C[C@@H](NC(=O)[C@H](C)NC(=O)[C@H](NC(=O)[C@H](C)NC(=O)CNC(=O)[C@@H](NC=O)C(C)C)C(C)C)C(=O)N[C@H](C(=O)N[C@H](CC(C)C)C(=O)N[C@@H](Cc1c[nH]c2ccccc12)C(=O)N[C@@H](C(=O)N[C@@H](Cc1c[nH]c2ccccc12)C(=O)N[C@@H](C(=O)N[C@@H](Cc1c[nH]c2ccccc12)C(=O)N[C@H](CC(C)C)C(=O)N[C@@H](Cc1c[nH]c2ccccc12)C(=O)NCCO)C(C)C)[C@H](C)O)C(C)C` [compound 7325] (For-VGA[dV]A[dL]V[dL]W[dT]W[dV]W[dL]W-NHCH2CH2OH), the “H+/Na+ transport activity normalized” value in series [1] was determined as 1.04. Further, the cell viability/% in series [2] stood at 82.2%. The antibacterial activity entry in series [3] was “-”.

Take `CC(C)C[C@@H](NC(=O)[C@H](C)NC(=O)[C@H](NC(=O)[C@H](C)NC(=O)CNC(=O)[C@@H](NC=O)C(C)C)C(C)C)C(=O)N[C@H](C(=O)N[C@@H](C(=O)N[C@@H](Cc1c[nH]c2ccccc12)C(=O)N[C@@H](C(=O)N[C@@H](Cc1c[nH]c2ccccc12)C(=O)N[C@H](CC(C)C)C(=O)N[C@@H](Cc1c[nH]c2ccccc12)C(=O)N[C@@H](C(=O)N[C@@H](Cc1c[nH]c2ccccc12)C(=O)NCCO)[C@H](C)O)C(C)C)C(C)C)C(C)C` [compound 7393] (For-VGA[dV]A[dL]V[dV]W[dV]W[dL]W[dT]W-NHCH2CH2OH): in series [1], the “H+/Na+ transport activity normalized” value was 1.07. The cell viability/% in series [2] is on record as 100.0%. The antibacterial activity result in series [3] was “-”.

On to `CNC(=O)C[C@@H](NC(=O)[C@@H](NC(=O)[C@@H](CC(C)C)NC(=O)[C@H](C)NC(=O)[C@@H](CC(C)C)NC(=O)[C@H](C)NC(=O)CNC(=O)[C@@H](NC=O)C(C)C)C(C)C)C(=O)N[C@@H](Cc1c[nH]c2ccccc12)C(=O)N[C@H](CC(C)C)C(=O)N[C@@H](Cc1c[nH]c2ccccc12)C(=O)N[C@@H](C(=O)N[C@@H](Cc1c[nH]c2ccccc12)C(=O)N[C@H](CC(C)C)C(=O)N[C@@H](Cc1c[nH]c2ccccc12)C(=O)NCCO)C(C)C` [compound 7400] (For-VGA[dL]A[dL]V[dD](NHMe)W[dL]W[dV]W[dL]W-NHCH2CH2OH), for which the “H+/Na+ transport activity normalized” value in series [1] came out at 1.30. In addition, the cell viability/% in series [2] is reported as 100.0%. In addition, in series [3], the antibacterial activity result is listed as “-”.

On to `CC(C)C[C@@H](NC(=O)[C@H](C)NC(=O)CNC(=O)[C@@H](NC=O)C(C)C)C(=O)N[C@@H](C)C(=O)N[C@H](CC(C)C)C(=O)N[C@H](C(=O)N[C@H](CC(C)C)C(=O)N[C@@H](Cc1c[nH]c2ccccc12)C(=O)N[C@@H](C(=O)N[C@@H](Cc1c[nH]c2ccccc12)C(=O)N[C@@H](C(=O)N[C@@H](Cc1c[nH]c2ccccc12)C(=O)N[C@@H](C(=O)N[C@@H](Cc1c[nH]c2ccccc12)C(=O)NCCO)C(C)C)C(C)C)C(C)C)C(C)C` [compound 7408] (For-VGA[dL]A[dL]V[dL]W[dV]W[dV]W[dV]W-NHCH2CH2OH), for which the “H+/Na+ transport activity normalized” value in series [1] is 1.06. In series [2], this compound gave a cell viability/% of 19.4%. For the same compound, the antibacterial activity result in series [3] is listed as “-”.

Consider `CNC(=O)C[C@@H](NC(=O)[C@@H](NC(=O)[C@H](NC(=O)[C@H](C)NC(=O)[C@H](NC(=O)[C@H](C)NC(=O)CNC(=O)[C@@H](NC=O)C(C)C)C(C)C)C(C)C)C(C)C)C(=O)N[C@@H](Cc1c[nH]c2ccccc12)C(=O)N[C@H](CC(C)C)C(=O)N[C@@H](Cc1c[nH]c2ccccc12)C(=O)N[C@H](CC(C)C)C(=O)N[C@@H](Cc1c[nH]c2ccccc12)C(=O)N[C@H](CC(C)C)C(=O)N[C@@H](Cc1c[nH]c2ccccc12)C(=O)NCCO` [compound 7437] (For-VGA[dV]A[dV]V[dD](NHMe)W[dL]W[dL]W[dL]W-NHCH2CH2OH), for which the “H+/Na+ transport activity normalized” value in series [1] was determined as 1.11. Further, the cell viability/% in series [2] is 100.0%. For the same compound, the antibacterial activity entry in series [3] was “-”.

With `CNC(=O)C[C@@H](NC(=O)[C@H](Cc1c[nH]c2ccccc12)NC(=O)[C@H](NC(=O)[C@H](Cc1c[nH]c2ccccc12)NC(=O)[C@H](NC(=O)[C@H](Cc1c[nH]c2ccccc12)NC(=O)[C@H](NC(=O)[C@@H](NC(=O)[C@@H](CC(C)C)NC(=O)[C@H](C)NC(=O)[C@H](NC(=O)[C@H](C)NC(=O)CNC(=O)[C@@H](NC=O)C(C)C)C(C)C)C(C)C)C(C)C)C(C)C)C(C)C)C(=O)N[C@@H](Cc1c[nH]c2ccccc12)C(=O)NCCO` [compound 7479] (For-VGA[dV]A[dL]V[dV]W[dV]W[dV]W[dD](NHMe)W-NHCH2CH2OH), the “H+/Na+ transport activity normalized” value in series [1] was 1.00. This compound returned a cell viability/% in series [2] of 100.0%. The antibacterial activity result in series [3] was “-”.

In the case of `CC(C)C[C@@H](NC(=O)[C@H](C)NC(=O)CNC(=O)[C@@H](NC=O)C(C)C)C(=O)N[C@@H](C)C(=O)N[C@H](CC(C)C)C(=O)N[C@H](C(=O)N[C@H](CC(C)C)C(=O)N[C@@H](Cc1c[nH]c2ccccc12)C(=O)N[C@@H](C(=O)N[C@@H](Cc1c[nH]c2ccccc12)C(=O)N[C@H](CC(C)C)C(=O)N[C@@H](Cc1c[nH]c2ccccc12)C(=O)N[C@@H](C(=O)N[C@@H](Cc1c[nH]c2ccccc12)C(=O)NCCO)C(C)C)[C@H](C)O)C(C)C` [compound 7480] (For-VGA[dL]A[dL]V[dL]W[dT]W[dL]W[dV]W-NHCH2CH2OH), in series [1], the “H+/Na+ transport activity normalized” value was found to be 1.01. Also, the cell viability/% in series [2] was determined as 100.0%. Moreover, the antibacterial activity result in series [3] is reported as “-”.

Turning to `CC(C)C[C@@H](NC(=O)[C@H](C)NC(=O)CNC(=O)[C@@H](NC=O)C(C)C)C(=O)N[C@@H](C)C(=O)N[C@@H](C(=O)N[C@H](C(=O)N[C@@H](C(=O)N[C@@H](Cc1c[nH]c2ccccc12)C(=O)N[C@@H](C(=O)N[C@@H](Cc1c[nH]c2ccccc12)C(=O)N[C@@H](C(=O)N[C@@H](Cc1c[nH]c2ccccc12)C(=O)N[C@@H](C(=O)N[C@@H](Cc1c[nH]c2ccccc12)C(=O)NCCO)C(C)C)C(C)C)C(C)C)C(C)C)C(C)C)C(C)C` [compound 7516] (For-VGA[dL]A[dV]V[dV]W[dV]W[dV]W[dV]W-NHCH2CH2OH), in series [1], the “H+/Na+ transport activity normalized” value turned out to be 1.03. Besides, the cell viability/% in series [2] was determined as 100.0%. For the same compound, the antibacterial activity entry in series [3] is “+”.

For `CC(C)C[C@@H](NC(=O)[C@H](C)NC(=O)CNC(=O)[C@@H](NC=O)C(C)C)C(=O)N[C@@H](C)C(=O)N[C@H](CC(C)C)C(=O)N[C@H](C(=O)N[C@@H](C(=O)N[C@@H](Cc1c[nH]c2ccccc12)C(=O)N[C@@H](C(=O)N[C@@H](Cc1c[nH]c2ccccc12)C(=O)N[C@@H](C(=O)N[C@@H](Cc1c[nH]c2ccccc12)C(=O)N[C@H](CC(C)C)C(=O)N[C@@H](Cc1c[nH]c2ccccc12)C(=O)NCCO)C(C)C)C(C)C)[C@H](C)O)C(C)C` [compound 7548] (For-VGA[dL]A[dL]V[dT]W[dV]W[dV]W[dL]W-NHCH2CH2OH), in series [1], the “H+/Na+ transport activity normalized” value is on record as 1.08. The compound further registered a cell viability/% in series [2] of 100.0%. For the same compound, in series [3], the antibacterial activity result was “-”.

These data come from paper PMC7531004, “Discovery of gramicidin A analogues with altered activities by multidimensional screening of a one-bead-one-compound library” (Nature Communications, 2020).
